From patent US20250282714A1, “COMPOSITIONS FOR AND METHODS OF MODULATING RNA STABILITY” (Duke University, priority 2022, published 2025) come the findings set out here.

Assay [1] concerns MALAT1 triple helix. As to the kind of experiment: Differential scanning fluorimetry (DSF), thermal stability. The conditions noted are these: for effect on MALAT1 triplex thermal stability (in words): DSF. The format is binding, human. How it is done: Differential scanning fluorimetry experiments were performed as previously reported. (Donlic A, et al. (2020) Nucleic Acids Res. 48(14):7653-7664). All experiments were performed in white 96 well plates in a LightCycler® 96 (Roche). In a typical experiment, 4 μM of RNA was annealed in the same buffer used for indicator displacement assays (20 mM HEPES-KOH, 52.6 mM KCl, 0.1 mM MgCl2, pH=7.4) by heating at 95° C. for 3 minutes, snap-cooling on ice for 10 minutes, and leaving the solution at room temperature for 1 hr. Then, 42 μL of this solution was aliquoted to wells and 5 μM of ligand was added (2.5 μL of water, 2.0 μL of DMSO, 0.5 μL of 500 μM small molecule stock). The mixture was left to incubate at room temperature for 5 minutes, after which 3 μL of a 20 μM Quant-iT™ RiboGreen™ (ThermoFisher Scientific) dye stock solution in appropriate buffer was added to each well. The 96 well plate was then sealed with an optically clear foil and centrifuged for 1 minute at 4000 rpm prior to being placed in the instrument. The light cycler program was created by selecting the melting curve method; fluorescence intensity was monitored using the SYBR Green I/HRM dye filter combination (465-510 nm) from 37-98° C. at a ramp rate of 0.01° C./second with 150 acquisitions per° C. Melting profiles were obtained by Tm analysis in the LightCycler® 96 software (SW 1.1).
The MALAT1 triple helix is known to confer stability to the full-length transcript and protect it from RNase-mediated degradation, ultimately resulting in transcript accumulation and aggregation in nuclear speckles. (Brown J A, (2020) WIREs RNA. 11(6):e1598; Wilusz J E, et al. (2012) Genes Dev. 26(21):2392-2407; Brown J A, et al. (2014) Nat Struct Mol Biol. 21(7):633-640; Tycowski K T, et al. (2016) Cell Rep. 15(6):1266-1276). To better understand how the diminazene focused library affects the MALAT1 triplex stability, the entire library was evaluated via differential scanning fluorimetry (DSF) (FIG. 5A). This method allows for rapid assessment of small molecule effects on nucleic acid thermal stability (Silvers R, et al. (2015) Chembiochem. 16(7):1109-1114) in a 96-well plate format, substantially reducing the time and cost associated with traditional UV-melting experiments.
The bi-phasic melting profile distinctive of triple helices is attributed to an initial melting of the Hoogsteen triple base pairs followed by dissociation of Watson-Crick-Franklin base pairs (FIG. 16A-FIG. 16E). (Pilch D S, et al. (1995) Biochemistry. 34(49):16107-16124). At an equimolar ratio of RNA:small molecule, a range of thermal stabilization of the first (Tm1) was observed, but not the second (Tm2) melting peak (FIG. 5A, FIG. 13A-FIG. 13Z). At increasing small molecule concentration, a dose-dependent increase in ΔTm1 but not in ΔTm2 was observed, indicating small molecule interactions in the triplex region and not in the upper stem region (FIG. 15).

Assay [2] relates to MALAT1 triple helix. As to the kind of experiment: RiboGreen indicator displacement assay (IDA). Conditions: for affinity for the MALAT1 triple helix (in words): RiboGreen IDA. The format is binding, human. How it is done: The protocol was adapted from a previously reported procedure. (Donlic A, et al. (2020) Nucleic Acids Res. 48(14):7653-7664). A serial dilution of the MALAT1 triple helix RNA was performed in HEPES buffer (20 mM HEPES-KOH, 52.6 mM KCl, 0.1 mM MgCl2, pH=7.4) in a 96 well plate in triplicate. […] of each dilution were transferred to a 384 well plate followed by […] of a 500 nM solution of RiboGreen dye in the same buffer (Invitrogen™). The plates were excited at 487 nm (8 nm slit) and emission was recorded at 530 nm (8 nm slit, focal height 11.3 mm) using a CLARIOstar plate reader (BMG labtech). The affinity of the dye for the RNA construct was determined by fitting the raw fluorescence in GraphPad Prism version 8.3.1 for Macintosh (GraphPad Software, La Jolla California USA, (www.graphpad.com)) by fitting to the Log[Agonist] vs. response—variable slope model that using Equation (1) below.
where Y is normalized % change in fluorescence intensity, X is RNA concentration, Bottom is lowest fluorescence % change and Top is highest fluorescence % change. Affinity of the dye for the RNA construct was used as the ideal RNA concentration (174 nM) for small molecule titrations.
A serial dilution of small molecule (0, 0.5 μM, 1.0 μM, 2.5 μM, 5 μM, 7.5 μM, 10.0 μM, 12.5 μM, 25 μM, 50 µM, 75 μM, 100 μM, 125 μM, 150 μM, 250 μM, 500 µM) was performed in HEPES buffer (20 mM HEPES-KOH, 52.6 mM KCl, 0.1 mM MgCl2, pH=7.4) in a 96 well plate in triplicate. Then, 8 μL of each dilution were transferred to a 384 well plate, followed by 8 μL of a 174 nM solution of MALAT1 RNA and […] of RiboGreen™ (Invitrogen™). The RNA was previously annealed by heating to 95° C. for 5 minutes and cooling to 0° C. on ice for 30 minutes. The 384 well plates were shaken for 5 minutes, centrifuged at 4000 rpm for 1 minute, and incubated in the dark for 20 minutes. The plates were excited at 487 nm (8 nm slit) and emission was read at 525 nm (8 nm slit, focal height […]) using a CLARIOstar plate reader (BMG Labtech). Percent fluorescence indicator displacement (% FID) was calculated by subtracting and, subsequently, dividing by the blank wells with RNA-dye complex and no small molecule as shown in Equation (2).
Where Fo is the fluorescence of the blank well with RNA+dye and no small molecule and F is the fluorescence of the well with all three components (RNA+dye+small molecule).
Each technical triplicate was averaged, and the resulting FID values were averaged between three independent experiments. The binding curve and Log (CD50) value was obtained by using a non-linear fit curve (Log[Agonist] vs. response) with variable slope at four parameters (GraphPad Prism Software version for Macintosh 8.3.1, La Jolla, California, USA (www.graphpadprism.com)) as shown in Equation 1. Reported values are averages of three independent experiments=standard deviation.
Given the structural differences between secondary and tertiary structures, where more continuous and complex base-pairing occurs, the design and optimization of an RNA triple helix IDA amenable to HTS was the first focused on. The utility of RiboGreen™ dye was confirmed as an indicator. The RiboGreen™ structure is proprietary, and stoichiometry is thus unconfirmed. Upon assay optimization, the 21-member library was screened using a 16-point titration in three independent replicates (FIG. 2A, FIG. 12A-FIG. 12U).

Assay [3] concerns MALAT1 triple helix. As to the kind of experiment: RNase A enzymatic degradation assay. The conditions noted are these: for stabilizing / destabilizing compound (as listed 'in an aspect'): stabilizing = less, destabilizing = more degradation in an enzymatic assay than control. The assay is classed as biochemical, human. As to the method: The procedure was adapted from a published protocol for exonucleolytic enzymatic degradation assay. (Donlic A, et al. (2020) Nucleic Acids Res. 48(14):7653-7664). The MALAT1 destabilizing small molecules published by Le Grice (Abulwerdi F A, et al. (2019) ACS Chem Biol. 14(2):223-235) and co-workers SM5 and SM16 were purchased from ChemBridge. For a typical 70 μL reaction, […] of MALAT1 triple helix RNA was annealed in the same buffer used for IDA and DSF experiments (20 mM HEPES-KOH, 52 mM KCl, 0.1 mM MgCl2, pH=7.4) by heating at 95° C. for 3 minutes, snap-cooling on ice for 10 minutes, and leaving the solution at room temperature for 1 hr.
RNase A enzyme (ThermoFisher) was diluted to 1.46 nM and incubated with 1 M NaCl for 30-35 minutes to achieve ssRNA selectivity as reported. (Struhl K, et al. (1989) Current Protocols in Molecular Biology. 8(1):3.13.1-3.13.3). Next, the RNA was mixed with 0.2 μM of a GC-rich DNA duplex, […] of small molecule/DMSO and incubated at room temperature for 20 minutes. Following the incubation, […] of RNase A was added, and the reaction was incubated at 37° C. for 1 hour in a thermal cycler with a heated lid (Eppendorf). 4 μL timepoint aliquots were taken at 0, 5, 10, 30, and 60 minutes, 4 μL of 2×RNA loading dye was added to each aliquot (ThermoFischer Scientific), and samples were stored at −80° C. prior to gel analysis. Reactions were analyzed on pre-cast 15% PAGE-Urea gels (Invitrogen) in 1×TBE buffer. Aliquots were thawed from −80° C. storage and heated to 95° C. for 15 minutes prior to gel loading and […] were loaded in each well. Gels were run for 45 minutes at 180 V, stained with Diamond™ Nucleic Acid dye (Promega), and visualized on an iBright 500 (ThermoFisher). DMSO controls were ran with every set of 4 small molecules to ensure consistency of enzyme activity and RNA integrity. Gel band intensity of the MALAT1 triple helix and DNA loading control were quantified using ImageJ software. (Rueden C T, et al. (2017) BMC Bioinformatics. 18(1):529).
To quantify time-dependent endonucleolytic degradation for each sample, the intensity was normalized using Equation (3), and fold-difference was calculated as listed in Equation (4) as previously reported. (Donlic A, et al. (2020) Nucleic Acids Res. 48(14):7653-7664).
where y is normalized RNA area for a specific time point and the sample (tx), TH (triple helix). Area is the raw band intensity for the RNA in the lane corresponding to time point x for that sample, LC (loading control). Area (t0) is the raw band intensity for the DNA in the lane corresponding to the 0 minute time point for the sample, and LC Area (tx) is the raw band intensity for the DNA in the lane corresponding to time point x for that sample.
where y is fold-difference of the exonucleolytic degradation for the specific sample, with normalized areas for its specific time point x and time point 0 calculated as described in Equation (3). Percent RNA degraded was calculated for every time point using Equation (5).
% RNA degraded=(Normalized area (t0)−Normalized area (tx))*100 (Equation 5)
Experimental results shown in FIG. 6C are plotted as three independent replicates and standard deviation between replicates as error bars. Relative fold change between treated condition and DMSO was calculated from Equation (6).
The library was screened using a more biologically relevant in vitro enzymatic degradation assay. Previous work evaluated the effect on triplex degradation of various ionic buffer conditions (Ageeli A A, et al. (2018) Nucleic Acids Res. 47(3):1468-1481) and a sub-set of DPF small molecules (Donlic A, et al. (2020) Nucleic Acids Res. 48(14):7653-7664) using E. coli RNase R exonuclease as it degrades from 3′ to 5′, reporting on the availability of the poly(A) tail normally sequestered in the triplex construct. […]

Where [4] appears, read: 5-minute time point, relative to DMSO control.

“Also recorded” adds a separate entry of the source.

Consider `N=C(NCCc1cccnc1)c1cccc(/N=N/Nc2cccc(C(=N)NCCc3cccnc3)c2)c1` [DMZ-M3], for which, in the assay with MALAT1 triple helix [1], the “effect on MALAT1 triplex thermal stability (in words)” value (from here on “effect … (in words)”) was “negligible thermal stabilization”. For the same molecule, the “affinity for the MALAT1 triple helix (in words)” value (from here on “affinity … (in words)”) with MALAT1 triple helix [2] was “moderate affinity”.

On to `N=C(NCc1ccc(Cl)cc1)c1ccccc1/N=N/Nc1ccccc1C(=N)NCc1ccc(Cl)cc1` [DMZ-O5], for which, in the assay with MALAT1 triple helix [3] (setting [4]), the “stabilizer / destabilizer classification by RNase A degradation” value (shortened to “stabilizer / destabilizer classification”) is given as “much stronger destabilizing effect”. For the same molecule, the “stabilizing / destabilizing compound (as listed 'in an aspect')” value (“stabilizing / destabilizing compound” below) in the assay on MALAT1 triple helix [3] is given as “stabilizing; also recorded: destabilizing”.

Consider `N=C(NCc1ccccc1)c1ccccc1/N=N/Nc1ccccc1C(=N)NCc1ccccc1` [DMZ-O4], for which, in the assay with MALAT1 triple helix [2], the “affinity … (in words)” value is reported as “no affinity”.

Take `CN(C)c1ccc(CN2CCC(CCNC(=N)c3ccc(/N=N/N(C)c4ccc(C(=N)NCCC5CCN(Cc6ccc(N(C)C)cc6)CC5)cc4)cc3)CC2)cc1` [DMZ-NMe-P38]: in the assay on MALAT1 triple helix [3], the “stabilizing / destabilizing compound” value is listed as “destabilizing”.

Regarding `N=C(N)c1ccc(/N=N/Nc2ccc(C(=N)N)cc2)cc1` [DMZ-P0, diminazene, reference compound], the “stabilizer / destabilizer classification” value with MALAT1 triple helix [3] (setting [4]) was “destabilizers”. Also, the “effect … (in words)” value in the assay with MALAT1 triple helix [1] is “increases in thermal stability”.

Take `CN(C)CCCNC(=N)c1ccc(/N=N/Nc2ccc(C(=N)NCCCN(C)C)cc2)cc1` [DMZ-P1]: in the assay with MALAT1 triple helix [3] (setting [4]), the “stabilizer / destabilizer classification” value is given as “destabilizers” and the “strength class of stabilizer / destabilizer (change in degradation)” value was “weak destabilizer (weak destabilizer (<50% increase in degradation))”. Further, the “effect … (in words)” value with MALAT1 triple helix [1] is “increases in thermal stability”. In the assay with MALAT1 triple helix [1] (equimolar RNA:small molecule, versus DMSO vehicle), the “effect on Tm1 (ΔTm1, first melting peak)” value is “approximately 6.1 °C”.

Take `N=C(NCc1ccc(Cl)cc1)c1ccc(/N=N/Nc2ccc(C(=N)NCc3ccc(Cl)cc3)cc2)cc1` [DMZ-P5]: the “fold higher affinity, para scaffold versus ortho scaffold” value with MALAT1 triple helix [2] (subunit R-5: DMZ-P5 versus DMZ-O5) was found to be 13 fold.

For `N=C(NCc1ccco1)c1cccc(/N=N/Nc2cccc(C(=N)NCc3ccco3)c2)c1` [DMZ-M15], the “effect … (in words)” value in the assay on MALAT1 triple helix [1] is on record as “negligible thermal stabilization”. The “affinity … (in words)” value with MALAT1 triple helix [2] is reported as “moderate affinity”.

Turning to `CCCCNC(=N)c1ccc(/N=N/Nc2ccc(C(=N)NCCCC)cc2)cc1` [DMZ-P17], the “effect … (in words)” value with MALAT1 triple helix [1] is “negligible thermal stabilization”. Also, the “affinity … (in words)” value with MALAT1 triple helix [2] was “moderate affinity”.

Turning to `CN(/N=N/c1ccc(C(=N)NCCC2CCN(Cc3ccccc3)CC2)nc1)c1ccc(C(=N)NCCC2CCN(CC3C=CC=CC3)CC2)nc1` (stereo not drawn) [DMZ-NMe-mPy-P1], the “stabilizing / destabilizing compound” value with MALAT1 triple helix [3] is listed as “destabilizing”.
